What was measured:
[1] = Solubility (qualitative); assay type: physicochemical
[2] = system: cyanobacteria Synechococcus 7002; experiment: Liquid culture growth inhibition (optical density), salt water cyanobacteria; assay type: cell-based; settings: Synechococcus 7002, residual salt control; untreated control 0.72
Procedure: Strains of green algae, cyanobacteria and E. Coli were used as test organisms. The green algae CD 1 Red and cyanobacteria Synechocystos 6803 were obtained from the collection of Prof. George Bullerjahn. Salt water strain of cyanobacteria Synechococcus 7002 was obtained from the collection of Prof. Michael McKay. E Coli DH 5α was obtained from Invitrogen Inc.
Green algae and cyanobacteria were propagated photoautotrophically in 250 mL Erlenmeyer flasks containing 100 mL of liquid BG-11 culture medium (see Supporting Information). The cultures were kept on a rotating shaker (100 rpm) at 25° C. for 4 days and continuously illuminated with cool-white fluorescent light with a constant light intensity of 5000 lux. The grown culture medium was sterilized in an autoclave at 121° C. and 1.05 kg cm^−2 pressure for 20 min. For the cell experiments, 20 mL aliquots of the BG-11 medium containing the green algal ([cells]initial=5.9×10^7 mL^−1) or cyanobacteria cells ([cells]initial=1.7×10^9 mL^−1) were placed in sterile 50 mL Erlenmeyer flasks. CD 1 Red, Synechocystos 6803 and Synechococcus 7002 were then treated with an aliquot of a stock herbicide solution to bring the final herbicide concentration to 1 mM and incubated for 7 days on a rotator shaker (100 rpm) at 25° C. and continuous light intensity of 5000 lux. Cell counts were correlated with the absorbance and measured as a function of time using a Spectronic 20 Genesis spectrophotometer. As previously reported by Ma et al., 5 the optimal wavelength for monitoring culture growth is 680 nm. Experiments for each herbicide were repeated three times. Control and treated cultures were grown under the same conditions of temperature, photoperiod, and agitation. In each experiment, the inhibition of cell growth in treated cultures was monitored spectrophotometrically and compared to the growth in control samples.

[3] = system: green algae CD 1 Red; experiment: organism not typed; assay type: cell-based; settings: 120 h; CD1 Red, herbicide concentration 300 mM, 5 days; read-out: Average radii of the inhibition zones
Procedure: After phototrophical propagation during the 5 days under cool fluorescence light (intensity 5000 lux), the average radii of inhibition zones were measured. Water soaked filter paper circles were used as controls. Experiments for each herbicide concentration were repeated 3 times.

With `C=C(C)C(=O)N(CC(=O)O)CP(=O)(O)O` [MA, N-Methacryloyl-N-(phosphonomethyl)glycine] the “Solubility in organic solvents” value [1] was “poorly soluble in most organic solvents” and the Solubility in water [1] was “soluble in water”.
In the case of `[Cl-].[Na+]` [NaCl, sodium chloride], the “Optical Density at 680 nm after 7 days of media growth, NaCl control experiment” value [2] is reported as “(0.75 NaCl)”.
With `C=CC(N)=O` [acrylamide] the zone of inhibition at 300000 µM [3] was 7.5 mm.

Reference: patent publication US20080317700A1 (priority 2006, published 2008)
